Columns and labels:
[1] = Calculation of possible maximum concentrations in gut lumen; parameters: species or system human; conditions: calculated, after a single oral administration of Epimedium pubescens decoction
Description: The reported V L was 1.65 L/70 kg. […] Here we arbitrarily assumed the ratio in rat equaled to that in human blood, and the values of their oral bioavailability were consistent.

[2] = target: T1, UGT1A7 (Homo sapiens, UniProt Q9HAW7); assay: Inhibition of recombinant UGT1A7 activity (4-MU glucuronidation)
T1 sequence (Q9HAW7 26-530): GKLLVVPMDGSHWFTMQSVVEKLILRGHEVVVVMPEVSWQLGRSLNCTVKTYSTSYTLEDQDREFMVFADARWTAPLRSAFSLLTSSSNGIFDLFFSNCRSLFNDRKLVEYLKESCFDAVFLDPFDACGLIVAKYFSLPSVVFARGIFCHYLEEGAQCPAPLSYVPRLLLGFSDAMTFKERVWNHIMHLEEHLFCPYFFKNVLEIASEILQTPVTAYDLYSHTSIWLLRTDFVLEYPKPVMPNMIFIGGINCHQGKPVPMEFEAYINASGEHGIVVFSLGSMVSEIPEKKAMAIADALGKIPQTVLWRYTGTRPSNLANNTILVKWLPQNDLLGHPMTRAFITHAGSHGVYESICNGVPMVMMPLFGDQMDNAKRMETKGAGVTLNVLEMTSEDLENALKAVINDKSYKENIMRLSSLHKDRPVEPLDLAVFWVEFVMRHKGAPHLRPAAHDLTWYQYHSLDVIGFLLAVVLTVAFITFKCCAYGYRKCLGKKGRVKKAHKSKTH
Description: A panel of recombinant human UGT supersomes (UGT1A1, UGT1A3, UGT1A4, UGT1A6, UGT1A7, UGT1A8, UGT1A9, UGT1A10, UGT2B4, UGT2B7, UGT2B15, and UGT2B17) expressed in baculovirus-infected insect cells were purchased from BD Gentest Corp. (Woburn, MA, USA).
4-MU, a nonselective substrate of UGTs, was used as probe substrate for all UGTs except UGT1A4. Incubations with each individual enzyme were conducted using conditions previously described. There was a 5 min preincubation step at 37°C before the reaction was started by addition of UDPGA. The incubation mixtures were then centrifuged at 20,500 ×g for 15 min to obtain the supernatant. Aliquots (20 μL) were then analyzed by HPLC. The HPLC system (SHIMADZU, Kyoto, Japan) consisted of an SCL-10A system controller, two LC-10AT pumps, a SIL-10A auto injector, and a SPD-10AVP UV detector. Chromatographic separation was achieved using a Kromasil ODS column (4.6 × 150 mm I.D., 5 μm particle size) at a flow rate of 1 mL/min and UV detection at 316 nm. The mobile phase consisted of 10 mM KH2PO4, pH 2.7 (A) and acetonitrile (B). The following gradient was applied at a flow rate of 1 mL/min: 0–4 min 80% A and 20% B, 4.1–8 min 50% A and 50% B, 8.1–12 min, 30% A and 70% B. All experiments were performed in two independent experiments in duplicate.
A typical incubation mixture contained recombinant human UGTs, 5 mM MgCl2, 5 mM UDPGA, 50 μg/mg protein alamethicin, 50 mM Tris-HCl buffer (pH 7.4), and various probe substrates of UGTs in the absence or presence of different concentrations of inhibitors. […] The final concentration of DMSO in the incubation system was 1% (v/v). […] Known UGT inhibitors were used as positive controls: diclofenac for UGT1A1, UGT1A6, UGT1A7, and UGT1A9; androsterone for UGT1A3, UGT2B7, and UGT2B15, phenylbutazone for UGT1A8 and UGT1A10, and hecogenin for UGT1A4, respectively. There is no positive control reported available for UGT2B4 and UGT2B17. The negative controls are the incubation without UDPGA. […] The final concentration of DMSO in the incubation system was 1% (v/v). […] There was a 5 min preincubation step at 37°C before the reaction was started by the addition of UDPGA. Incubation times were 120 min for UGT1A1, UGT1A10, UGT2B4, UGT2B15, and UGT2B17, 75 min for UGT1A3, and 30 min for UGT1A4, UGT1A6, UGT1A7, UGT1A8, and UGT1A9. The reactions were quenched by adding 100 μL acetonitrile and internal standard. The incubation mixtures were then centrifuged at 20,500 ×g for 15 min to obtain the supernatant. An aliquot of the supernatant was used for HPLC analysis as described above. All experiments were performed in two independent experiments in duplicate.
Inhibition data from experiments were graphically represented by Dixon plots. K i values were calculated by nonlinear regression using the equations for competitive inhibition (1), noncompetitive inhibition (2), or mixed inhibition (3), [22] (1) v =VmaxS/Km(1+(I/Ki))+S, (2) v =VmaxS/(Km+S)(1+(I/Ki)), (3) v =VmaxS/Km (1+(I/Ki))+S(1+(I/αKi)), where v is the velocity of the reaction; S and I are the substrate and inhibitor concentrations, respectively; K i is the inhibition constant describing the affinity of the inhibitor for the enzyme; K m is the substrate concentration at half of the maximum velocity (V max) of the reaction; α reflects the effect of inhibitor on the affinity of the enzyme for its substrate. The type of inhibition was determined from the enzyme inhibition models. Goodness of fit to kinetic and inhibition models was assessed from the F statistic, r ^2 values, parameter standard error estimates, and 95% confidence intervals. Kinetic constants are reported as the mean value ± standard error of the parameter estimate.

| Possible maximum concentration in human gut lumen [1] | IC50 [2] [nM] | Ki [2] [nM] | Inhibition type against UGT1A7 ([2]; recombinant UGT1A7) | α of mixed inhibition against UGT1A7 ([2]; recombinant UGT1A7, mixed inhibition model) | SMILES |
| --- | --- | --- | --- | --- | --- |
| ~3.8 µM | 300 | 700 ± 200 | mixed | 2.7 | COc1ccc(-c2oc3c(CC=C(C)C)c(O)cc(O)c3c(=O)c2O)cc1 [Icaritin] |
| ~0.2 µM | > 100000 |  |  |  | COc1ccc(-c2oc3c(CC=C(C)C)c(O[C@@H]4O[C@H](CO)[C@@H](O)[C@H](O)[C@H]4O)cc(O)c3c(=O)c2O)cc1 [Icariside I] |

| SMILES | Possible maximum concentration in human gut lumen [1] | IC50 [2] [nM] | Ki [2] [nM] | Inhibition type against UGT1A7 ([2]; recombinant UGT1A7) | α of mixed inhibition against UGT1A7 ([2]; recombinant UGT1A7, mixed inhibition model) |
| --- | --- | --- | --- | --- | --- |
| COc1ccc(-c2oc3c(CC=C(C)C)c(O[C@@H]4O[C@H](CO)[C@@H](O)[C@H](O)[C@H]4O)cc(O)c3c(=O)c2O[C@@H]2O[C@@H](C)[C@H](O)[C@@H](O)[C@H]2O)cc1 [Icariin] | about 9.9 μM | > 100000 |  |  |  |

From PMC3479967 (Evidence-based Complementary and Alternative Medicine : eCAM, 2012)
